Measurements published in ChEMBL document CHEMBL3421590, “Pancreatic lipase inhibitory constituents from Morus alba leaves and optimization for extraction conditions” (Bioorg Med Chem Lett, 2015).

What was measured:
[1] = target: T1, Pancreatic triacylglycerol lipase (Sus scrofa, UniProt P00591); experiment: Inhibition of porcine pancreatic lipase using p-nitrophenylbutyrate as substrate assessed as formation of p-nitrophenol preincubated for 15 mins followed by substrate addition measured after 15 mins
T1 sequence (P00591 whole entry): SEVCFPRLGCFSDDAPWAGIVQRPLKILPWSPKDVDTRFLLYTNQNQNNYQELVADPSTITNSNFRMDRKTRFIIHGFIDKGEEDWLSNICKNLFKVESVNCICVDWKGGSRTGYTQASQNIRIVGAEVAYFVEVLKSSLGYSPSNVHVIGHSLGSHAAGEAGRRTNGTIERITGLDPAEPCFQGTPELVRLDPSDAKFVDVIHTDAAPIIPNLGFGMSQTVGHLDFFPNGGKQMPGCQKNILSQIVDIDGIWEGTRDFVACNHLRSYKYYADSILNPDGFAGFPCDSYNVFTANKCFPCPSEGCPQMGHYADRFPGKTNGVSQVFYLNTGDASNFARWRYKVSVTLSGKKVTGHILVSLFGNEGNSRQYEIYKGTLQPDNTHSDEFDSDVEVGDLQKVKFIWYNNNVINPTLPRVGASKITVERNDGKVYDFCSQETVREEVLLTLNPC

[2] = target: T2, Pancreatic triacylglycerol lipase (Sus scrofa) (UniProt P00591); experiment: Inhibition of porcine pancreatic lipase using p-nitrophenylbutyrate as substrate assessed as formation of p-nitrophenol at 100 uM preincubated for 15 mins followed by substrate addition measured after 15 mins relative to control
T2 sequence (whole entry): T1 sequence (P00591 whole entry)

| SMILES | IC50 [1] | inhibition [2] |
| --- | --- | --- |
| Oc1cc(O)cc(-c2cc3cc4ccoc4cc3o2)c1 | > 70 µM | 31.7% |
| COc1ccc(-c2oc3cc(O)cc(O)c3c(=O)c2OC2O[C@H](CO)[C@@H](O)[C@H](O)[C@H]2O)cc1 (some centres undefined) | > 70 µM | 12.1% |
| O=C1CC(c2ccc(O)cc2O)Oc2cc(O)ccc21 (centres undefined) | 56.4 µM | 69.6% |
| Oc1cc(O)cc(-c2cc3ccc(O)c(O)c3o2)c1 | 63 µM | 55.9% |
| Oc1cc(O)cc(-c2cc3cc(O)c(O)cc3o2)c1 | 64.8 µM | 59.1% |
| CC1(C)C=Cc2cc3cc(-c4cc(O)cc(O)c4)oc3cc2O1 | 29.2 µM | 67.9% |
| O=c1c(O)c(-c2ccc(O)c(O)c2)oc2cc(O)cc(O)c12 |  | 36.3% |
| CC(C)=CCC/C(C)=C/Cc1c(O)cc(O)cc1-c1cc2ccc(O)cc2o1 [ALBAFURAN A] | > 70 µM | 45.4% |
| O=c1c(O[C@@H]2O[C@H](CO)[C@@H](O)[C@H](O)[C@H]2O)c(-c2ccc(O)cc2)oc2cc(O)cc(O)c12 [ASTRAGALIN] | > 70 µM | 10.8% |
| O=c1c(O[C@@H]2O[C@H](CO)[C@@H](O)[C@H](O)[C@H]2O)c(-c2ccc(O)c(O)c2)oc2cc(O)cc(O)c12 [ISOQUERCETIN] | > 70 µM | 12.6% |
| COc1cc(-c2oc3cc(O)cc(O)c3c(=O)c2O)ccc1O [ISORHAMNETIN] | > 70 µM | 32.4% |
| O=c1c(O)c(-c2ccc(O)cc2)oc2cc(O)cc(O)c12 [KAEMPFEROL] | > 70 µM | 50.3% |
| CC(C)=CCc1c(-c2ccc(O)cc2O)oc2c(CC=C(C)C)c(O)cc(O)c2c1=O [KUWANON C] | 18.6 µM | 72.5% |
| CC(C)=CCc1c(O)ccc(C(=O)/C=C/c2ccc(O)cc2O)c1O [MORACHALCONE A] | 6.2 µM | 73% |
| CC(C)=CCc1c(O)cc(-c2cc3ccc(O)cc3o2)cc1O [MORACIN C] | 32 µM | 64.8% |
| Oc1cc(O)cc(-c2cc3ccc(O)cc3o2)c1 [MORACIN M] | > 70 µM | 21.5% |
| CC(C)=CCc1cc2cc(-c3cc(O)cc(O)c3)oc2cc1O [MORACIN N] | 29.7 µM | 61.7% |
| O=c1cc(-c2ccc(O)cc2O)oc2cc(O)cc(O)c12 [NORARTOCARPETIN] | > 70 µM | 45.3% |
| Oc1cc(O)cc(/C=C/c2ccc(O)cc2O)c1 [OXYRESVERATROL] | > 70 µM | 28.8% |
| O=C1CC(c2ccc(O)cc2O)Oc2cc(O)cc(O)c21 (centres undefined) [STEPPOGENIN] | > 70 µM | 4.4% |
